# Laboratory results reported in ChEMBL document CHEMBL4052794, “Design, synthesis, docking and biological evaluation of 4-phenyl-thiazole derivatives as autotaxin (ATX) inhibitors” (Bioorg Med Chem Lett, 2017).
# Biological target: T1, Autotaxin (Homo sapiens, UniProt Q13822)
# Experiment: Inhibition of ATX in human plasma using LPC as substrate pretreated for 15 mins followed by substrate addition measured after 3 hrs by LC-MS/MS analysis
row,IC50 [nM],Compound
1,735,CS(=O)(=O)Nc1ccc(-c2csc(C(=O)NC3CCN(C(=O)OCc4cc(Cl)cc(Cl)c4)CC3)n2)cc1
2,15,O=C(NC1CCN(C(=O)OCc2cc(Cl)cc(Cl)c2)CC1)c1nc(-c2ccc(CP(=O)(O)O)cc2)cs1

# Biological target: T1, Autotaxin
# Experiment: Inhibition of human ATX using FS-3 as substrate measured every 5 mins for 30 mins by fluorescence assay
row,Compound,IC50 [nM]
1,COc1ccc(-c2csc(C(=O)NC3CCN(C(=O)OCc4cc(Cl)cc(Cl)c4)CC3)n2)cc1,30.3
2,CS(=O)(=O)Nc1ccc(-c2csc(C(=O)NC3CCN(C(=O)OCc4cc(Cl)cc(Cl)c4)CC3)n2)cc1,2.99
3,O=C(O)c1cc(-c2csc(NC3CCN(C(=O)OCc4ccccc4)C3)n2)ccc1O (configuration not stated),10900
4,NS(=O)(=O)c1cc(-c2csc(NC3CCN(C(=O)OCc4ccccc4)C3)n2)ccc1Cl (configuration not stated),1340
5,O=C(NC1CCN(C(=O)OCc2cc(Cl)cc(Cl)c2)CC1)c1nc(-c2ccc(CP(=O)(O)O)cc2)cs1,2.19
6,CS(=O)(=O)Nc1cccc(-c2csc(NC3CCN(C(=O)OCc4cc(Cl)cc(Cl)c4)CC3)n2)c1,> 100
7,CN(c1ccc(S(N)(=O)=O)cc1)c1nc(-c2ccc(O)c(CO)c2)cs1,5820
8,O=C(Cc1cccc(Nc2nc(-c3ccc(O)c(O)c3)cs2)c1)NCc1ccccc1,8060
9,O=C(OCc1ccccc1)N1CCC(Nc2nc(-c3ccc(CP(=O)(O)O)cc3)cs2)CC1,75.9
10,NS(=O)(=O)c1cc(-c2csc(C(=O)NC3CCN(C(=O)OCc4ccccc4)CC3)n2)ccc1Cl,505
11,CN(c1ccc2c(c1)CS(=O)(=O)N2)c1nc(-c2ccc(O)c(C(=O)O)c2)cs1,> 10000
12,O=C(OCc1ccccc1)N1CCC(Nc2nc(-c3ccc(O)c(O)c3)cs2)C1 (configuration not stated),1230
13,O=C(NC1CCN(C(=O)OCc2cc(Cl)cc(Cl)c2)CC1)c1nc(-c2ccc(Cl)cc2)cs1,63.3
14,O=C(NC1CCN(C(=O)OCc2ccccc2)CC1)c1nc(-c2ccc(CP(=O)(O)O)cc2)cs1,13.7
15,NS(=O)(=O)c1cc(-c2csc(C(=O)NC3CCN(C(=O)OCc4cc(Cl)cc(Cl)c4)CC3)n2)ccc1Cl,4.47
16,O=C(OCc1ccccc1)N1CCC(Nc2nc(-c3ccc(CP(=O)(O)O)cc3)cs2)C1 (configuration not stated),10.3

# The remaining lines, values ahead:
row,IC50 [nM],Compound
1,10500,NS(=O)(=O)c1cc(-c2csc(C(=O)Nc3cccc(C(=O)O)c3)n2)ccc1Cl
2,1300,NS(=O)(=O)c1cc(-c2csc(NC3CCN(C(=O)OCc4ccccc4)CC3)n2)ccc1Cl
3,9430,O=C(Nc1cccc(Nc2nc(-c3ccc(O)c(O)c3)cs2)c1)OCc1ccccc1
4,2570,CS(=O)(=O)Nc1ccc(-c2csc(N(Cc3ccccn3)c3ccc4nn[nH]c4c3)n2)cc1
5,2110,NS(=O)(=O)c1cc(-c2csc(C(=O)NCc3ccc(Cl)cc3)n2)ccc1Cl
6,10600,CN(c1ccc(S(N)(=O)=O)cc1)c1nc(-c2ccc(O)c(C(=O)O)c2)cs1
7,11600,O=S(=O)(Cc1cccc(Nc2nc(-c3ccc(O)c(O)c3)cs2)c1)NCc1ccccc1
8,4470,NC(=O)c1cc(-c2csc(NC3CCN(C(=O)OCc4ccccc4)C3)n2)ccc1O (configuration not stated)
9,6570,CN(c1ccc(S(N)(=O)=O)cc1)c1nc(-c2ccc(O)c(C(N)=O)c2)cs1
